Source: PMC4891694, “Insights into the role of sulfated glycans in cancer cell adhesion and migration through use of branched peptide probe” (Scientific Reports, 2016)

Columns and labels:
breast cancer in mice = conditions: orthotopic breast cancer, versus unconjugated paclitaxel; cited from earlier work
[1] = system: NT4 binding to endocytic receptors; parameters: method as in PMID 23713525; conditions: cited from earlier work
[2] = system: NT4 binding to PgsA-745 cells; experiment: Flow cytometry, inhibition of NT4 binding to PgsA-745 cells by heparin; format: cell-based, Chinese hamster; conditions: 1 μM biotinylated NT4, 100 μg/ml heparin
Method: PANC-1 human pancreas adenocarcinoma, CHO-K1 Chinese hamster ovary cell and PgsA-745 Chinese hamster ovary cell mutant deficient in xylosyltransferase (UDP-D-xylose: serine-1,3-D-xylosyltransferase) were grown in DMEM Medium (for PANC-1 and CHO-K1) and F12 K Medium supplemented with 10% fetal bovine serum, 200 μg/ml glutamine, 100 μg/ml streptomycin and 60 μg/ml penicillin. Cell lines were purchased from ATCC (The Global Bioresource Center).
All experiments were performed using 1 × 10^5 PANC-1, CHO-K1 or PgsA-745 cells in 96-well U-bottom plates. […] Cells were finally incubated with 1 μg/ml Streptavidin-FITC. All dilutions were performed in PBS, containing 5 mM EDTA and 0.5% BSA.
10000 events were analyzed in a BD FACS Calibur (Becton Dickinson, NJ USA). Results were analyzed by FCS Express 4 Plus software.

[3] = system: NT4 binding to membrane receptors on PANC-1 cells; experiment: Flow cytometry, inhibition of NT4 binding to PANC-1 cells by GAGs; format: cell-based, human; conditions: 1 μM biotinylated NT4, 100 μg/ml GAGs, PBS with 5 mM EDTA and 0.5% BSA, Streptavidin-FITC
[4] = system: cancer cell lines and human cancer surgical samples; parameters: method as in 2 sources, one per row (each row's own in cited_ref): ref 1-6 = [1]; PMID 17766836; doi:10.1158/1535-7163.MCT-07-0164; Falciani C. et al. Synthesis and biological activity of stable branched neurotensin peptides for tumor targeting . Mol. Cancer Ther. 6 , 2441 − 2448 ( 2007 ). 17766836 10.1158/1535-7163.MCT-07-0164 || [2]; PMID 20222099; doi:10.1002/cmdc.200900527; Falciani C. et al. Design and in vitro evaluation of branched peptide conjugates: turning nonspecific cytotoxic drugs into tumor-selective agents . ChemMedChem. 5 , 567 − 574 ( 2010 ). 20222099 10.100 || [3]; PMID 20578987; doi:10.2174/156800910793605875; Falciani C. et al. Modular branched neurotensin peptides for tumor target tracing and receptor-mediated therapy: a proof-of-concept . Curr. Cancer Drug Targets. 10 , 695 − 704 ( 2010 ). 20578987 10.21 || [4]; PMID 21370475; doi:10.1002/cmdc.201000463; Falciani C. et al. Target-selective drug delivery through liposomes labeled with oligobranched neurotensin peptides . ChemMedChem. 6 , 678 − 685 ( 2011 ). 21370475 10.1002/cmdc.201000463 || [5]; PMID 25984525; doi:10.1155/2015/173507; Brunetti J. et al. Neurotensin branched Peptide as a tumor-targeting agent for human bladder cancer . Biomed Res Int. 2015 , 173507 , doi: 10.1155/2015/173507 ( 2015 ). 25984525 PMC4423026 ||| ref 7 = [7]; PMID 23713525; doi:10.1021/jm400329p; Falciani C. et al. Cancer selectivity of tetrabranched neurotensin peptides is generated by simultaneous binding to sulfated glycosaminoglycans and protein receptors . J Med Chem. 56 , 5009 – 18 ( 201); conditions: compared with NT4; cited from earlier work

CC(=O)O[C@H]1C(=O)[C@@]2(C)[C@H]([C@H](OC(=O)c3ccccc3)[C@]3(O)C[C@H](OC(=O)[C@H](O)[C@@H](NC(=O)c4ccccc4)c4ccccc4)C(C)=C1C3(C)C)[C@]1(OC(C)=O)CO[C@@H]1C[C@@H]2O [unconjugated paclitaxel, paclitaxel]
tumor regression (breast cancer in mice): not achieved with unconjugated paclitaxel

heparin
inhibition of NT4 binding to endocytic receptors [1]: completely inhibited by heparin
inhibition of NT4 binding to PgsA-745 cells [2]: still completely inhibited by heparin
inhibition of NT4 binding (in words) [3]: complete inhibition

hyaluronic acid
inhibition of NT4 binding (in words) [3]: neither binding to NT4 or inhibition of NT4 binding to cancer cell membranes was detected

native neurotensin: monomeric native neurotensin
high cancer selectivity [4]: not shared by monomeric native neurotensin
